Earlier results, collected in patent publication US20220395497A1, “Cancer Treatment Using Camptothecin Derivatives” (priority 2019, published 2022).
Read-outs that look alike come from different tables or passages of the source. Marks after values point to notes of the source that are not given here.

What was measured:
reGBM patients [1] = conditions: cited from earlier work; for Diarrhoea Grades 3-5 / Neutropenia Grades 3-4 / Thrombocytopenia Grades 3-4: reGBM, single agent
reGBM patients [2] = conditions: cited from earlier work
[3] = tested on: cells in the S phase of the cell cycle; conditions: in vitro; cited from earlier work
reGBM patients [4] = conditions: single agent vs Enzastaurin, N = 92, Treated = 84; cited from earlier work
reGBM patients [5] = conditions: single agent/placebo, N = 64; cited from earlier work
[6] = tested on: Colorectal cancer patients; conditions: single agent, bolus, N = 223; cited from earlier work
[7] = tested on: Colorectal cancer patients; conditions: w/5FU, LV, bolus, N = 225; cited from earlier work
[8] = tested on: Metastatic Colorectal cancer patients; conditions: previously treated, cited from earlier work
[9] = tested on: Recurrent Colorectal cancer patients; conditions: N = 316 across 2 studies, cited from earlier work
GBM/AA patients = conditions: single agent Phase II, N = 20 in heavily pretreated bev failures; cited from earlier work
BCBM patients = conditions: Phase 3 BEACON Study, N = 425; cited from earlier work
[10] = in vivo; cited from earlier work

Compound: CC[C@@]1(O)C(=O)OCc2c1cc1n(c2=O)Cc2c-1nc1ccccc1c2/C=N/OC(C)(C)C [Gimatecan]
- treatment-related toxicities of thrombocytopenia, leukopenia, and neutropenia, patients (reGBM patients [1]; Phase II trial, oral): 10-18%
- PFS6 (reGBM patients [1]; in vivo): 12%
- Diarrhoea Grades 3-5 (reGBM patients [1]; N = 10 High Dose): 0%
- Neutropenia Grades 3-4 (reGBM patients [1]; N = 10 High Dose): 30%
- Thrombocytopenia Grades 3-4 (reGBM patients [1]; N = 10 High Dose): 40%
- Diarrhoea Grades 3-5 (reGBM patients [1]; N = 10 Low Dose): 0%
- Neutropenia Grades 3-4 (reGBM patients [1]; N = 10 Low Dose): 0%
- Thrombocytopenia Grades 3-4 (reGBM patients [1]; N = 10 Low Dose): 5%

Compound: CC[C@@]1(O)C(=O)OCc2c1cc1n(c2=O)Cc2c-1nc1ccccc1c2CC[Si](C)(C)C [Karenitecin]
- neutropenia and thrombocytopenia, patients (reGBM patients [2]; Phase I trial): 13-23%
- Diarrhoea Grades 3-5 (reGBM patients [2]; reGBM, single agent, N = 30): 3%
- Neutropenia Grades 3-4 (reGBM patients [2]; reGBM, single agent, N = 30): 23%
- Thrombocytopenia Grades 3-4 (reGBM patients [2]; reGBM, single agent, N = 30): 13%

Compound: CC[C@@]1(O)C(=O)OCc2c1cc1n(c2=O)Cc2cc3ccccc3nc2-1 [camptothecin]
- sensitivity to camptothecin-induced apoptosis, S phase cells vs cells in the G1 or G2 phase [3]: 100 to 1,000 times

Compound: O=NN(CCCl)C(=O)NC1CCCCC1 [Lomustine]
- Nausea Grades 3-5 (reGBM patients [4]): 0%
- Neutropenia Grades 3-4 (reGBM patients [4]): 20%
- Thrombocytopenia Grades 3-4 (reGBM patients [4]): 25%
- Diarrhoea Grades 3-5 (reGBM patients [5]): 2%
- Neutropenia Grades 3-4 (reGBM patients [5]): 3%
- Thrombocytopenia Grades 3-4 (reGBM patients [5]): 22%

Compound: CCc1c2c(nc3ccc(OC(=O)N4CCC(N5CCCCC5)CC4)cc13)-c1cc3c(c(=O)n1C2)COC(=O)[C@]3(O)CC [Irinotecan]
- Diarrhoea Grade 4 [6]: 7%
- Nausea Grades 3,4 [6]: 16%
- Neutropenia Grade 4 [6]: 12%
- Vomiting Grades 3,4 [6]: 12%
- Diarrhoea Grade 4 [7]: 5%
- Nausea Grades 3,4 [7]: 16%
- Neutropenia Grade 4 [7]: 24%
- Vomiting Grades 3,4 [7]: 10%
- Diarrhoea Grade 4 ([8]; N = 304, late diarrhoea): 14%**
- Nausea Grades 3,4 ([8]; N = 304): 17%
- Neutropenia Grade 4 ([8]; N = 304): 12%
- Vomiting Grades 3,4 ([8]; N = 304): 12%
- Diarrhoea Grade 4 ([9]; average across 2 studies): 22%*
- Nausea Grades 3,4 ([9]; average across 2 studies): 12%*
- Vomiting Grades 3,4 ([9]; average across 2 studies): 14%*
- Neutropenia Grade 4 [9]: 18%

Compound: Etirinotecan
- Diarrhoea Grades 3-5 (GBM/AA patients): 10%
- Diarrhoea Grades 3-5 (BCBM patients): 10%
- Nausea Grades 3-5 (BCBM patients): 4%
- Neutropenia Grades 3-4 (BCBM patients): 10%

Compound: CC[C@@]1(O)C(=O)OCc2c1cc1n(c2=O)Cc2cc3c(CN(C)C)c(O)ccc3nc2-1 [topotecan]
- ratio of the lactone AUC to total AUC [10]: 0.37

Compound: CCc1c2c(nc3ccc(O)cc13)-c1cc3c(c(=O)n1C2)COC(=O)[C@]3(O)CC [SN-38]
- ratio of the lactone AUC to total AUC [10]: 0.51
